According to PMC9804084, “Multiple drug transporters contribute to the brain transfer of levofloxacin” (CNS Neuroscience & Therapeutics, 2022):
Read-outs that look alike come from different tables or passages of the source.

Columns and labels:
[1] = system: P-glycoprotein (P-gp); assay: In vivo microdialysis pharmacokinetics of LVFX with P-gp inhibitor Tariquidar; set-up: species or system rat; details: for MRT / Tmax / AUC(0-inf) / Cmax / half-life / AUC(0-t) / Kp: rat, intravenous, with Tariquidar 8 mg/kg i.p., TAR group, Tariquidar 8 mg/kg i.p. + LVFX 50 mg/kg, N=5; for MRT / AUC(0-inf) / Cmax / half-life / AUC(0-t): mean ± SD; for AUC(0-t): read-out: AUC0–180 (converted)
Method: On the day of surgery, rats were anesthetized using inhaled isoflurane via a facemask. The rats were placed in a stereotaxic frame (Gene&I), and the body temperature was maintained with a homoeothermic blanket set at 37°C. A midline incision was made to expose the skull. According to the Paxinos and Watson atlas, two microdialysis intracerebral guide cannulae (Eicom Co.) were implanted into the hippocampus CA1 region (Hp‐CA1 coordinates: AP −4.16 mm; ML −2.2 mm; DV −2.9 mm) and lateral ventricle (LV coordinates: AP −1.4 mm; ML +2.2 mm; DV −3.4 mm). Fixed to the skull using a screw and dental cement. After 3 days of recovery, the rats were anesthetized with isoflurane again. An intravascular probe (TP‐100‐20; 20 mm, Eicom Co.) was implanted into the jugular vein toward the right atrium. After the blood microdialysis probe was positioned within the jugular vein, the pipeline was connected to perfuse with ACD solution (citric acid 3.5 mM; sodium citrate 7.5 mM; dextrose 13.6 mM) at a flow rate of […], and the Hamilton microinjection pump was used for continuous perfusion. After stopping isoflurane inhalation, the rats were allowed to wake up naturally on the homoeothermic blanket. The awake rats were placed in a device that allowed them to move freely. Animals were allowed to recover for an additional 24 h.
All microdialysate concentrations (C m) from the hippocampal ECF and lateral ventricle CSF were converted to the unbound drug concentration (C u) at the target site using the following formula: C u = C m/R dial.
A total of 32 rats were randomly divided into the following groups: • Control group, N = 12: vehicle solution + LVFX (50 mg/kg). • TAR group, N = 5: Tariquidar (8 mg/kg) + LVFX (50 mg/kg). • Ko143 group, N = 5: Ko143 (15 mg/kg) + LVFX (50 mg/kg). • MK571 group, N = 5: MK571 (20 mg/kg) + LVFX (50 mg/kg). • PRO group, N = 5: Probenecid (50 mg/kg) + LVFX (50 mg/kg).
Levofloxacin was freshly dissolved in isotonic saline and administered via tail vein injection. Thirty minutes before LVFX administration, the intervention drugs of each group were injected intraperitoneally. To reduce the possible effect of solvents on BBB or BCSFB permeability of LVFX, we prioritized water as the solvent. However, Tariquidar and Ko143 are insoluble in water, and a cosolvent must be used to prepare agents that animals can tolerate. According to the different physicochemical properties of these four inhibitors, the preparation of each transporter inhibitor solution in this experiment was as follows. • P‐glycoprotein (P‐gp) inhibitor Tariquidar[22]: Tariquidar was freshly dissolved in DMSO to 8 mg/ml and then diluted to 4 mg/ml with a solution containing 10% Tween‐80, 25% PEG300, and 65% sterile water. • Breast cancer resistance protein (BCRP) inhibitor Ko143[23]: Ko143 was freshly dissolved in DMSO to 15 mg/ml and then diluted to 7.5 mg/ml with a solution containing 10% Tween‐80, 25% PEG300, and 65% sterile water. • Multidrug resistance‐associated proteins (MRPs) inhibitor MK571[24]: MK571 sodium salt hydrate was dissolved in 1.25% (w/v) aq sodium hydrogen carbonate (NaHCO3) solution to obtain a concentration of 10 mg/ml. • Organic anion transporters (OATs) inhibitor probenecid[25]: Probenecid was dissolved in NaOH (pH = 9.0–9.2) alkalized physiological saline to obtain a concentration of 25 mg/ml.
The pipelines where the blood and brain probes were installed were perfused at the speed of 2 μl/min with ACD solution and ACSF, respectively. Two brain probes were inserted into guide cannulas of the target site and allowed to equilibrate for 1 h. Subsequently, the rats were treated according to their corresponding groups in the device where they could move freely. Microdialyses samples were collected every 15 min using a fraction collector (EFC‐96, Eicom Co.) for 3 h and stored at 4°C until analysis. Finally, rats were anesthetized and decapitated, and their brain was harvested.

[2] = Stability of LVFX in QC samples (dialysate solvents) under storage conditions; assay type: physicochemical; details: for Calculated concentration (mean ± SD): n=3
Method: Using artificial cerebrospinal fluid (ACSF) and Ringer's solution as solvents, the LVFX concentration required for calibration and quality control (QC) samples was obtained by appropriate step‐by‐step dilution. A calibration curve was constructed using the relationship between the analyte peak area and analyte concentration obtained in the range of 0.01–30 μg/ml. Linearity was assessed by a weighted (1/x ^2) least squares regression analysis. The accuracy and precision of the method were evaluated by QC samples of high, medium, and low concentrations. Quantification of the concentration of QC samples was conducted three times on the same day to evaluate the intra‐day precision and accuracy. The same procedure was employed for 3 consecutive days to evaluate the inter‐day precision and accuracy of this method. The relative error (RE%) and relative standard deviation (RSD%) were used to evaluate the accuracy and precision, respectively. We evaluated the stability of LVFX in dialysates under short‐term (6 h) room temperature, low temperature (4°C), and freeze–thaw conditions (three cycles).

[3] = CSF (lateral ventricle microdialysate, unbound), CSF
[4] = brain ECF (hippocampal microdialysate, unbound), 30 min before LVFX, brain ECF

Q: With `C[C@H]1COc2c(N3CCN(C)CC3)c(F)cc3c(=O)c(C(=O)O)cn1c23` [LVFX, Levofloxacin] as the molecule, how does the “change in LVFX in the rat brain after Tariquidar” value ([1]; Tariquidar 8 mg/kg i.p. + LVFX 50 mg/kg vs control group) read?
A: no significant change

Q: What about the MRT ([1]; CSF (lateral ventricle microdialysate, unbound), 30 min before LVFX, CSF) of the same molecule?
A: 80 min

Q: And the Tmax [1, 3]?
A: 15 min

Q: And the AUC(0-inf) [1, 3]?
A: 4540 ng·h/mL

Q: And the Cmax [1, 3]?
A: 3590 ± 280 ng/mL

Q: And the half-life [1, 3]?
A: 50.5 ± 18.6 min

Q: And the AUC(0-t) [1, 3]?
A: 3900 ng·h/mL

Q: And the Kp ([1]; CSF / blood (unbound, microdialysate), 30 min before LVFX, AUCu,CSF/AUCu,blood, read-out: K p,uu,CSF)?
A: 0.37 ± 0.013

Q: And the Tmax [1, 4]?
A: 15 min

Q: What about the AUC(0-inf) [1, 4] of the same molecule?
A: 4580 ng·h/mL

Q: And the Cmax [1, 4]?
A: 2810 ± 450 ng/mL

Q: What about the MRT [1, 4] of the same molecule?
A: 86.1 min

Q: And the half-life [1, 4]?
A: 52.9 ± 9.83 min

Q: What about the AUC(0-t) [1, 4] of the same molecule?
A: 4100 ng·h/mL

Q: What about the Kp ([1]; brain ECF / blood, 30 min before LVFX, AUCu,ECF/AUCu,blood, read-out: K p,uu,ECF) of the same molecule?
A: 0.368 ± 0.035

Q: What about the Tmax ([1]; 30 min before LVFX, blood) of the same molecule?
A: 15 min

Q: And the AUC(0-inf) ([1]; 30 min before LVFX, blood)?
A: 11800 ng·h/mL

Q: And the Cmax ([1]; 30 min before LVFX, blood)?
A: 10400 ± 760 ng/mL

Q: And the MRT ([1]; 30 min before LVFX, blood)?
A: 69.2 min

Q: And the half-life ([1]; 30 min before LVFX, blood)?
A: 40 ± 6.51 min

Q: And the AUC(0-t) ([1]; 30 min before LVFX, blood)?
A: 11100 ng·h/mL

Q: And the “stability under storage conditions employed” value ([2]; QC samples, room temp 6 h, 4°C, freeze–thaw 3 cycles)?
A: stable

Q: What about the “maximum deviation in stability test of QC samples” value ([2]; all storage conditions (Table 2)) of the same molecule?
A: 4.71%

Q: What about the “Calculated concentration (mean ± SD)” value ([2]; freeze–thaw (3 cycles), nominal concentration 0.3 μg/ml) of the same molecule?
A: 0.289 ± 0.008 µg/mL

Q: And the “Calculated concentration (mean ± SD)” value ([2]; freeze–thaw (3 cycles), nominal concentration 3 μg/ml)?
A: 2.960 ± 0.140 µg/mL

Q: What about the “Calculated concentration (mean ± SD)” value ([2]; freeze–thaw (3 cycles), nominal concentration 30 μg/ml) of the same molecule?
A: 29.959 ± 0.417 µg/mL

Q: And the “Calculated concentration (mean ± SD)” value ([2]; low temperature (4°C) 12 h, nominal concentration 0.3 μg/ml)?
A: 0.294 ± 0.012 µg/mL

Q: And the “Calculated concentration (mean ± SD)” value ([2]; low temperature (4°C) 12 h, nominal concentration 3 μg/ml)?
A: 3.055 ± 0.105 µg/mL

Q: And the “Calculated concentration (mean ± SD)” value ([2]; low temperature (4°C) 12 h, nominal concentration 30 μg/ml)?
A: 29.844 ± 0.102 µg/mL

Q: What about the “Calculated concentration (mean ± SD)” value ([2]; short term (room temp) 6 h, nominal concentration 0.3 μg/ml) of the same molecule?
A: 0.293 ± 0.011 µg/mL

Q: What about the “Calculated concentration (mean ± SD)” value ([2]; short term (room temp) 6 h, nominal concentration 3 μg/ml) of the same molecule?
A: 3.098 ± 0.056 µg/mL

Q: What about the “Calculated concentration (mean ± SD)” value ([2]; short term (room temp) 6 h, nominal concentration 30 μg/ml) of the same molecule?
A: 30.608 ± 0.405 µg/mL
